Laboratory results as given in patent US20180235213A1, “PLANT HORMONE APPLICATION” (The State of Israel Ministry of Agriculture & Rural …, priority 2015, published 2018).

What was measured:
Picual olives = test: Application of strigolactone analogs by irrigation to olive seedlings; assay type: in vivo, Olea europaea L.; conditions: for number of growing buds / lateral branches: irrigation to roots twice a week for 6 weeks, 0.03 and 0.3 μM, vs control
Experimental: The effect of application of various analogues of strigolactone (SL) on olives, given to roots by irrigation was examined. Three different SL analogs; […] The seedlings were rooted from cuttings and hardened, and were about 6 months old at the time of the experiment. Growth soil mixture was used as in the nursery. Each strigolactone analog was dissolved in acetone to give a 5.6 mM solution. This solution was then further diluted with distilled water to 0.03 and 0.3 μM. The diluted solution was injected to the roots twice a week for 6 weeks, and subsequently all the growing buds were counted. For each treatment (treated and control groups) 10 plants were measured. Experiments were repeated three times.

[1] = test system: Orobanche aegyptiaca seeds; test: Orobanche Germination Assay (biological activity after stress treatments); assay type: in vivo
Experimental: The implementation of the strigolactone analogs necessitates a degree of material stability, to ensure their activity on the plant under various growth conditions. Accordingly, the stability of the strigolactone analog GR24 was tested under different environmental conditions. GR24 in acetone stock solution of 5.6 mM was diluted in double distilled water (DDW) or HPC pre-made gel to a concentration of 0.56 μM in eppendorf tubes and was subjected to the following treatments:
GR24 solutions of 0.56 μM, diluted either in DDW or in HPC pre-made gel in eppendorf tubes were incubated in a dry block heater at temperatures of 4° C., 20° C., 40° C., 60° C. digitally set for periods of 3 h, 1 d, 2 d, 4 d, 5 d and 7 d under ambient light.
GR24 solutions of 0.56 μM, diluted either in DDW or in HPC pre-made gel, each in quartz tubes (15 replicates for each treatment) were exposed to UV radiation of λ=312 nm under UV lamp of 600 or 857 μE intensity for periods of 15 min, 30 min or 18 h.
Biological activity was determined by Orobanche Germination Assay: Approximately 30 to 50 seeds of Orobanche aegyptiaca were spread on a glass fiber filter paper disk (9-mm diameter) and put into sterile petri dishes (9-cm diameter) lined with Whatman filter paper wetted with 3 mL of demineralized water. Petri dishes were sealed with parafilm and incubated at 27° C. for preconditioning. After one week of preconditioning period, the glass fiber filter paper disks with Orobanche seeds were removed from the petri dish and dried for 20 min to remove surplus moisture. The disks were transferred to another petri dish within a filter paper ring (outer diameter of 9 cm; inner diameter of 8 cm) wetted with 0.9 mL of water, which maintained a moist environment during the germination bioassay. Forty microliters of the GR24 test solutions were added to the disks. Untreated GR24 at a 0.56 μM concentration was used as a positive control, water or HPC pre-made gel as negative controls. Germination percent was calculated using the counter cell analysis of the IMAGEJ (http://www.//rsbweb.nih.gov/ij/) software. Germinated seeds were distinguished from non-germinated seeds according to the seedling radicles, which are a few millimeters long and visible under a stereomicroscope (Leica MZFLIII, Leica Microsystems, GmbH).
For each of the GR24 treatments fifteen replicates with 30-40 seeds were tested per treatment with 40 μl of 0.56 μM GR24 test solutions pre-treated as described above. The experiment was repeated three times (n=450 seeds).
Next, GR24 was stabilized with Hydroxypropyl Cellulose (HPC), which is a […] medium. Granular HPC [Sigma-Aldrich Israel Ltd., CAS-No. 9004-64-2] […]

[2] = Mass spectrometry analysis of GR24 test solutions (molecular stability); assay type: physicochemical
Experimental: Mass spectrometry (MS) analysis was performed to GR24 test solutions using the Orbitrap XL (Thermo Fisher Scientific). The samples were injected directly using direct spray injection probe, in 50% acetonitrile solution and at […] flow rate. A full scan was acquired to detect the GR24 peaks, at 60,000 resolution, Maximum ion fill time settings were 300 ms for the high resolution full scan in the Orbitrap analyzer. The spectra are sum of 10 sec acquisition. Results observed by Xcalibur© software of Thermo Fisher Scientific Inc. version 2.0.7. were analyzed manually.
Next, GR24 was stabilized with Hydroxypropyl Cellulose (HPC), which is a […] medium. Granular HPC [Sigma-Aldrich Israel Ltd., CAS-No. 9004-64-2] (1 g) was ground to a fine powder using a mortar and pestle, mixed with sterile distilled water to make about 10 mL of gel, and then allowed to stand for 1 day for complete dissolution at room temperature. Stability of GR24 was tested by both biological activity of the strigolactone and by assessing the molecule using LC-MS.

olive seedling = test: Application to olive seedling stem under greenhouse conditions (parafilm, flexible or rigid tubes); conditions: in vivo
Experimental: EGO10 either with PVAc, or HPC+glycerin were applied on olive seedling stem by the use of parafilm cover as the apparatus, under greenhouse conditions (FIG. 15). Greenhouse conditions include controlled room temperature of 25° C. In each experiment, 10 plants were used for each treatment. The substances were applied on the stem by a spatula and covered with parafilm.
In attempt to improve the performance of the apparatus, different substances and different cover were used. Four formulations were developed and tested. These formulations are based on polysaccharide-sorbent-humidifier substances while the main difference between them is the viscosity of the final product and the ability to retain and release of the active ingredient (EGO 10). […] The cover consisted of a flexible plastic tube that was cut (FIG. 16A), placed on the seedling stem (FIG. 16B) and wrapped with transparent plaster (FIG. 16C). The plastic tubes were filled with the experimental material (FIG. 16D). Moist cotton was placed on both sides of the tubes to minimize water evaporation (FIG. 16E and FIG. 16F). Bud outgrowth was measured for 30 days.
Rigid plastic tubes were tested in order to determine their efficiency as a delivery device for application of the hormone formulations to plants. At first, eppendorf tubes served as prototype. The tubes ware cut from top to bottom and placed on the stem of seedlings. Each tube was sealed with a small moist cotton at the bottom, filled with 1 ml of the examined material and finally covered with transparent plastic tape (FIGS. 17A-17E). The tubes were filled with (HPC+glycerin), or PVAc and EGO10 In each experiment, 10 plants were used for each treatment. Greenhouse conditions include controlled room temperature of 25° C.
EGO10 (10 μM) or acetone control together with HPC+glycerin or PVAc were applied on the stem of olive cuttings by the use of rigid plastic tubes as described in Example 10 above.
Bud outgrowth of olive cuttings was measured until day 30.

Row | Compound | number of growing buds / lateral branches (Picual olives) | concentration at which the effect was most prominent (Picual olives; irrigation twice a week, 0.03 and 0.3 μM tested) | biological activity (Orobanche germination) after stress ([1]; 0.56 μM, long term exposure (over 5 days) to temperatures above 40° C., acidic pH solutions, UV irradiation) | biological activity in HPC medium ([1]; GR24 in HPC pre-made gel) | structure of the molecule in HPC medium (LC-MS) ([2]; GR24 in HPC, under the examination conditions) | molecular stability (MS) ([2]; long term exposure (over 5 days) to temperatures above 40° C., acidic pH solutions, UV irradiation) | seedling outgrowth with medium plus acetone control (olive seedling)
1 | CC1=C[C@H](O/C=C2/C(=O)O[C@@H]3c4ccccc4C[C@H]23)OC1=O (relative stereo) [GR24, (3aR*,8bS*,E)-3-(((R*)-4-methyl-5-oxo-2,5-dihydrofuran-2-yloxy)-methylene)-3,3a,4,8b-tetrahydro-2H-indeno[1,2-b]furan-2-one, reference compound] | significant reduction in number of lateral branches | 0.03 µM | loses biological activity | stabilized GR24 by increasing its biological activity | remained intact | molecularly degrading | –
2 | CC1=CC(O/C=C2/C(=O)c3c(c4cc(-c5scc6c5OCCO6)ccc4n3C)C2C)OC1=O (centres unmarked) [ST362, (2E)-2-[(2,5-dihydro-4-methyl-5-oxofuran-2-yloxy)methylene]-1,2-dihydro-7-(2,3-dihydrothieno[3,4-b][1,4]dioxin-7-yl)-1,4-dimethyl-cyclopenta[b]indole-3-(4H)-one] | similar, albeit less potent effect | – | – | – | – | – | –
3 | polyvinyl acetate [PVAc] | – | – | – | – | – | – | led to inhibition of seedling outgrowth
